# Source: ChEMBL document CHEMBL5120766, “Recent insight into the biological activities and SAR of quinolone derivatives as multifunctional scaffold” (Bioorg Med Chem, 2022)
# What was measured:
# [1] = target: Cytochrome P450 3A4 (Homo sapiens, UniProt P08684); assay: Inhibition of CYP3A4 in human liver microsomes using midazolam as substrate; type: ADME, Microsome
# [2] = test system: Escherichia coli; assay: Antibacterial activity against Escherichia coli ATCC 35218 incubated for 24 hrs by serial dilution method; type: functional
# [3] = test system: Klebsiella pneumoniae; assay: Antibacterial activity against Klebsiella pneumoniae ATCC 35657 incubated for 24 hrs by serial dilution method; type: functional
# [4] = test system: Mycobacterium tuberculosis; assay: Antimycobacterial activity against Mycobacterium tuberculosis H37Rv assessed as inhibition of bacterial growth measured after 24 hrs by turbidity based analysis; type: functional
# [5] = test system: Escherichia coli; assay: Antibacterial activity against Escherichia coli ATCC 8739 assessed as zone of inhibition by agar dilution method; type: functional
# [6] = test system: Staphylococcus aureus; assay: Antibacterial activity against Staphylococcus aureus ATCC 6538 assessed as zone of inhibition by agar dilution method; type: functional
# [7] = test system: Clostridium perfringens; assay: Antibacterial activity against Clostridium perfringens 22 incubated for 18 hrs by microbroth dilution method; type: functional
# [8] = test system: Bacteroides fragilis; assay: Antibacterial activity against Bacteroides fragilis PA-2-II incubated for 18 hrs by microbroth dilution method; type: functional
# [9] = test system: A549; assay: Antiproliferative activity against human A549 cells assessed as cell growth inhibition measured after 72 hrs by MTT assay; type: functional, cell-based; conditions: A549, 72 h
# [10] = test system: Plasmodium falciparum; assay: Antiplasmodial activity against Plasmodium falciparum 3D7 assessed as cell growth inhibition; type: functional, organism-based
# [11] = test system: Plasmodium falciparum; assay: Antiplasmodial activity against chloroquine sensitive Plasmodium falciparum NF54 infected in human red blood cells assessed as reduction in [3H]-hypoxanthine incorporation pretreated for 48 hrs followed by [3H]-hypoxanthine addition measured after 24 hrs by scintillation counting method; type: functional, organism-based
# [12] = test system: Plasmodium falciparum; assay: Antiplasmodial activity against Plasmodium falciparum FCR-3 assessed as cell growth inhibition; type: functional, organism-based
# [13] = test system: Pseudomonas aeruginosa; assay: Antibacterial activity against Pseudomonas aeruginosa NCDC 105 assessed as zone of inhibition at 10 ug/ml by agar well diffusion method; type: functional; conditions: read-out: DIZ
# [14] = test system: Pseudomonas aeruginosa; assay: Antibacterial activity against Pseudomonas aeruginosa NCDC 105 assessed as zone of inhibition at 50 ug/ml by agar well diffusion method; type: functional; conditions: read-out: DIZ
# [15] = test system: Pseudomonas aeruginosa; assay: Antibacterial activity against Pseudomonas aeruginosa NCDC 105 assessed as zone of inhibition at 100 ug/ml by agar well diffusion method; type: functional; conditions: read-out: DIZ
# [16] = test system: Mycobacterium tuberculosis; assay: Antimycobacterial activity against Mycobacterium tuberculosis H37Rv assessed as inhibition of bacterial growth measured after 7 days by alamar blue dye based microplate analysis; type: functional; conditions: 168 h, time 7 day
# [17] = test system: Bacillus subtilis; assay: Antibacterial activity against Bacillus subtilis PTCC 1207 assessed as zone of inhibition incubated for 24 hrs by cup-plate agar diffusion method; type: functional
# [18] = test system: Escherichia coli; assay: Antibacterial activity against Escherichia coli PTCC 1047 assessed as zone of inhibition incubated for 24 hrs by cup-plate agar diffusion method; type: functional
# [19] = test system: Staphylococcus aureus; assay: Antibacterial activity against Staphylococcus aureus ATCC 6538p incubated for 18 hrs by agar dilution method; type: functional
# [20] = test system: Staphylococcus epidermidis; assay: Antibacterial activity against Staphylococcus epidermidis ATCC 12228 incubated for 18 hrs by agar dilution method; type: functional
# [21] = test system: Bacillus subtilis; assay: Antibacterial activity against Bacillus subtilis ATCC 6633 incubated for 18 hrs by agar dilution method; type: functional
# [22] = test system: Human immunodeficiency virus 1; assay: Antiviral activity against wild type HIV1 infected in human C8166 cells; type: functional, organism-based; conditions: Human immunodeficiency virus 1, C8166
# [23] = test system: Human immunodeficiency virus 1; assay: Antiviral activity against HIV1 A17 mutant infected in human C8166 cells; type: functional, organism-based; conditions: Human immunodeficiency virus 1, A17, C8166
# [24] = test system: Human immunodeficiency virus 1; assay: Antiviral activity against HIV1 infected in human MT4 cells by MTT assay; type: functional, organism-based; conditions: Human immunodeficiency virus 1, MT4
# [25] = test system: Human immunodeficiency virus 2; assay: Antiviral activity against HIV2 infected in human MT4 cells by MTT assay; type: functional, organism-based; conditions: Human immunodeficiency virus 2, MT4
# Sequence of Cytochrome P450 3A4 (P08684 whole entry): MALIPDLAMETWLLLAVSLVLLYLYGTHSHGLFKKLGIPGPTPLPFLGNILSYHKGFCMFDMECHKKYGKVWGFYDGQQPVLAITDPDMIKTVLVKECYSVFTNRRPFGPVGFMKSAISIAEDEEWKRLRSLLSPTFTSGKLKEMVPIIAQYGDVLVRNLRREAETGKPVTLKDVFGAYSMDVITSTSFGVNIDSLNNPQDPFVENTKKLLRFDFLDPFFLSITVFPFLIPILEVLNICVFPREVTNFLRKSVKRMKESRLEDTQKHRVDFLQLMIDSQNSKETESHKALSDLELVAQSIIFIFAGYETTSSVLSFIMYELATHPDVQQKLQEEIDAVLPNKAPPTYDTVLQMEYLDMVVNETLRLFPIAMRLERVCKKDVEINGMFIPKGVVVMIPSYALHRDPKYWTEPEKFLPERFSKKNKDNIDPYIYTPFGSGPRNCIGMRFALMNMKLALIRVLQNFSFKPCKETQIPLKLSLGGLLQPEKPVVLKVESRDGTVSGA
structure (smiles),measurement,setting,value
COc1c(N2CC[C@@H](C3(N)CC3)C2)ccc2c(=O)c(C(=O)O)cn([C@@H]3C[C@@H]3F)c12,Ki,[1],67900 nM
O=C(NO)c1cn(C2CC2)c2cc(-n3cc(CN4CCOCC4)nn3)c(F)cc2c1=O,MIC,[2],4 µg/mL
same,MIC,[3],4 µg/mL
CCn1cc(C(=O)O)c(=O)c2cc(F)c(N3CCN(CC(=O)Nc4nnc(-c5ccc(Cl)cc5Cl)s4)CC3)cc21,MIC,[4],8 µg/mL
O=C([O-])c1cn(CCn2cc(C(=O)[O-])c(=O)c3cc(F)c(N4CC5CCCNC5C4)c(F)c32)c2c(F)c(N3CC4CCCNC4C3)c(F)cc2c1=O.[Na+].[Na+] (stereo unspecified),diameter of the inhibition zone (DIZ),[5],22 mm
same,diameter of the inhibition zone (DIZ),[6],15 mm
Cc1c(N2C[C@]3(N)CCC[C@]3(F)C2)c(F)cc2c(=O)c(C(=O)O)cn([C@@H]3C[C@@H]3F)c12.Cl.O.O,MIC,[7],≤ 0.05 µg/mL
same,MIC,[8],≤ 0.05 µg/mL
N=C(NS(=O)(=O)c1ccccc1C(F)(F)F)N1CCN(c2cc3c(cc2F)c(=O)c(C(=O)O)cn3-c2ccc(F)cc2F)CC1,IC50,[9],9 nM
C[C@H]1[C@@H](OC(=O)c2cn(C3CC3)c3cc(N4CCNCC4)c(F)cc3c2=O)O[C@@H]2O[C@@]3(C)CC[C@H]4[C@H](C)CC[C@@H]1[C@@]24OO3,IC50,[10],9.97 nM
Cn1c(-c2ccc(CCCCCCCCCCN3CCCCC3)cc2)cc(=O)c2ccccc21,IC50,[11],820 nM
Cn1cc(C(=O)N/N=C\c2ccccn2)c(=O)c2cc(F)ccc21,IC50,[12],3300 nM
Cn1c(-c2ccc(CCCCCCBr)cc2)cc(=O)c2ccccc21,IC50,[11],90 nM
CCn1cc(C(=O)O)c(=O)c2cc(F)c(N3CCN(CNc4nc5ccc(F)cc5s4)CC3)cc21,zone of inhibition at 10 µg/mL,[13],3.3 mm
same,zone of inhibition at 50 µg/mL,[14],3.8 mm
same,zone of inhibition at 100 µg/mL,[15],4.8 mm
COc1ccc(C(=O)N/N=C(/C)CCN2CCN(c3c(F)cc4c(=O)c(C(=O)O)cn(C5CC5)c4c3OC)CC2)cc1,MIC,[16],0.5 µM
CCn1cc(C(=O)O)c(=O)c2cc(F)c(N3CCN(C/C(=N\OC)c4cc5cccc(OC)c5oc4=O)CC3)nc21,diameter of the inhibition zone (DIZ),[17],39 mm
same,diameter of the inhibition zone (DIZ),[18],35 mm
O=C(O)c1cn(-c2ccc(F)cc2)c2cc(N3CCN(C/C(=N\O)c4ccccc4)CC3)c(F)cc2c1=O,MIC,[19],< 0.125 µg/mL
same,MIC,[20],< 0.125 µg/mL
same,MIC,[21],< 0.125 µg/mL
O=C(O)c1cn(C2CC2)c2cc(N3CCN(CNc4nc5ccc([N+](=O)[O-])cc5s4)CC3)c(F)cc2c1=O,zone of inhibition at 10 µg/mL,[13],3.5 mm
same,zone of inhibition at 50 µg/mL,[14],5.5 mm
same,zone of inhibition at 100 µg/mL,[15],6.3 mm
CCn1cc(C(=O)O)c(=O)c2cc(F)c(N3CCN(C/C(=N\OC)c4cc5cccc(OC)c5oc4=O)CC3)cc21,diameter of the inhibition zone (DIZ),[17],36 mm
same,diameter of the inhibition zone (DIZ),[18],32 mm
CC(C)[C@@H](CO)n1cc(C(=O)O)c(=O)c2c(F)c(Cc3cccc(Cl)c3F)ccc21,EC50,[22],32 nM
same,EC50,[23],82 nM
Cn1cc(C(=O)O)c(=O)c2ccc(N3CCN(c4nc5ccccc5s4)CC3)nc21,EC50,[24],60 nM
same,EC50,[25],40 nM
